According to US8871753B2, “Macrocyclic compounds and their use as kinase inhibitors” (Incyte Corporation, priority 2008, dated 2014):
Where a name gives a salt, the structure may show the parent alone. Read-outs that look alike come from different tables or passages of the source.

Columns and labels:
Assay type in all cases: biochemical
[1] = molecular target: T1, human JAK1 (a.a. 837-1142) (Homo sapiens, UniProt P23458); assay: In vitro JAK kinase assay (HTRF, phosphorylation of a biotinylated peptide), JAK1; settings: read-out: JAK1 IC50
T1 construct: human JAK1 (a.a. 837-1142); His tag (N); made in house; host or cells: insect cells (baculovirus)
T1 sequence (P23458 849-1154): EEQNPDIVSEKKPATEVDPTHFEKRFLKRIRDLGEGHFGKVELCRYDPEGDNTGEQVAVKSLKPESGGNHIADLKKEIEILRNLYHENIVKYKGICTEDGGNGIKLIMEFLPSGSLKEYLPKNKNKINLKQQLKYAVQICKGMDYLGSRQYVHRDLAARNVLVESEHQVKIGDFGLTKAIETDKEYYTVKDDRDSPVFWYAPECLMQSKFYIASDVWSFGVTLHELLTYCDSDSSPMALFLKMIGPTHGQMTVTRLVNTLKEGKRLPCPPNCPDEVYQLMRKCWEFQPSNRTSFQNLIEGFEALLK
Summary of the method: (§1)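 Phosphorylation of a biotinylated peptide by the JAK kinase domain, detected by HTRF with Eu-Py20 and SA-APC. ATP was 90 μM for JAK1, 30 μM for JAK2 and 3 μM for JAK3. Reactions ran 1 h at room temperature and were stopped with EDTA, followed by 40 min antibody binding.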

[2] = molecular target: T2, human JAK2 (a.a. 828-1132) (Homo sapiens, UniProt O60674); assay: In vitro JAK kinase assay (HTRF, phosphorylation of a biotinylated peptide), JAK2
T2 construct: JAK2 (a.a. 828-1132); His tag (N); made in house; host or cells: insect cells (baculovirus)
T2 sequence (O60674 828-1132): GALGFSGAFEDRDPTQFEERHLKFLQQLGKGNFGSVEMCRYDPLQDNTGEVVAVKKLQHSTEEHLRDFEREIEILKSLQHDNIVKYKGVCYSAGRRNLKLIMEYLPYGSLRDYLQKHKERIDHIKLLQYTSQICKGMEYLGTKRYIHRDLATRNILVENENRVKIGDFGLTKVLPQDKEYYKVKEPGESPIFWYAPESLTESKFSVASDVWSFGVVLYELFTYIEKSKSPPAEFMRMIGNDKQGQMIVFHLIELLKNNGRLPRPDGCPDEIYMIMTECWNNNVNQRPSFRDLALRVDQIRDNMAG
Summary of the method: as §1

[3] = molecular target: T3, human JAK3 (a.a. 781-1124) (Homo sapiens, UniProt P52333); assay: In vitro JAK kinase assay (HTRF, phosphorylation of a biotinylated peptide), JAK3
T3 construct: JAK3 (a.a. 781-1124); His tag (N); made in house; host or cells: insect cells (baculovirus)
T3 sequence (P52333 781-1124): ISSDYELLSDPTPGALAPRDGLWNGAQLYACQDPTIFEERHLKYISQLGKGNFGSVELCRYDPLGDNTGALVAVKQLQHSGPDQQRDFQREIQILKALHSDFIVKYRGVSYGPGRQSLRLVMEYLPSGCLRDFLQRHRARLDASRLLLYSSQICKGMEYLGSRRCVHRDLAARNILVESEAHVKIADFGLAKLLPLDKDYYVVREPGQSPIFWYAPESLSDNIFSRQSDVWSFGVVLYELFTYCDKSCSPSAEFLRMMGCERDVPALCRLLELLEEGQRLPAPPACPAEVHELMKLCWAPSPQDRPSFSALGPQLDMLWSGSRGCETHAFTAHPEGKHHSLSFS
Procedure: The catalytic activity of JAK1, JAK2 or JAK3 was assayed by measuring the phosphorylation of a biotinylated peptide. The phosphorylated peptide was detected by homogenous time resolved fluorescence (HTRF). […] The ATP concentration in the reactions was 90 μM for JAK1, 30 μM for JAK2 and 3 μM for JAK3. Reactions were carried out at room temperature for 1 hr and then stopped with 20 μL 45 mM EDTA, 300 nM SA-APC, 6 nM Eu-Py20 in assay buffer (Perkin Elmer, Boston, Mass.). Binding to the Europium labeled antibody took place for 40 minutes and HTRF signal was measured on a Fusion plate reader (Perkin Elmer, Boston, Mass.).
The catalytic activity of JAK1, JAK2 or JAK3 was assayed by measuring the phosphorylation of a biotinylated peptide. The phosphorylated peptide was detected by homogenous time resolved fluorescence (HTRF). […] Reactions were carried out at room temperature for 1 hr and then stopped with 20 μL 45 mM EDTA, 300 nM SA-APC, 6 nM Eu-Py20 in assay buffer (Perkin Elmer, Boston, Mass.). Binding to the Europium labeled antibody took place for 40 minutes and HTRF signal was measured on a Fusion plate reader (Perkin Elmer, Boston, Mass.).

TYK2 = TYK2 (Homo sapiens, UniProt P29597); assay: TYK2 kinase inhibition (Table A1)
Chain of TYK2 (P29597 whole entry): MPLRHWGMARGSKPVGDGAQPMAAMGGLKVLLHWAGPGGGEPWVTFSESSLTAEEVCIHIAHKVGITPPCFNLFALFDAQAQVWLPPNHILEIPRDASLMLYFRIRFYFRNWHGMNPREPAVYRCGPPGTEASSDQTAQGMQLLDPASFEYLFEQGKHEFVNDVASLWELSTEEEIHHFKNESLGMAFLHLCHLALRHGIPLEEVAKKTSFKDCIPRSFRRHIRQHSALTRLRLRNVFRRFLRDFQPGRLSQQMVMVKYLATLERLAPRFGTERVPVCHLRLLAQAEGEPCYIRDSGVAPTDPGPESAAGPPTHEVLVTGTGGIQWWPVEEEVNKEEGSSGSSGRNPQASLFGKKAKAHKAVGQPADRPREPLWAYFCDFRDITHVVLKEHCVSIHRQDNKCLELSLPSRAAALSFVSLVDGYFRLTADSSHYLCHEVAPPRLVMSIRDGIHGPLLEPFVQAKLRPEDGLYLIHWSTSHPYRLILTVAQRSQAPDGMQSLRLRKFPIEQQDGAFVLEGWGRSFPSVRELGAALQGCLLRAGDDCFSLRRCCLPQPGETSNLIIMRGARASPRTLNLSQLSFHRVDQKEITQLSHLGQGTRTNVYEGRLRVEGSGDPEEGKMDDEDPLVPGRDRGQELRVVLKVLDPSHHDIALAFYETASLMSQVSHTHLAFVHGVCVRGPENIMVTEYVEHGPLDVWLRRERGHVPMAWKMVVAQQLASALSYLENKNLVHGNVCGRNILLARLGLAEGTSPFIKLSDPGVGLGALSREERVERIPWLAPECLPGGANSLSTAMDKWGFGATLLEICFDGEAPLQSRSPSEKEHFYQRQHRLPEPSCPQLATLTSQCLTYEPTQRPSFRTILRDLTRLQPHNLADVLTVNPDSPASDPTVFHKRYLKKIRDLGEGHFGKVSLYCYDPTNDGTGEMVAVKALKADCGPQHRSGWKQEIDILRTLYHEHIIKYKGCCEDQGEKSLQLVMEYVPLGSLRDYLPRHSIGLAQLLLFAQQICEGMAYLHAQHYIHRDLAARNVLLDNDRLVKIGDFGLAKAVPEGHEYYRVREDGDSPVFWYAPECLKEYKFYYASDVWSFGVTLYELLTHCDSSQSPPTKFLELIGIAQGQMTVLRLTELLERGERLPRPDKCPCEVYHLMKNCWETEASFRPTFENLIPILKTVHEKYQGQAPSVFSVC

SMILES | IC50 [1] [nM] | IC50 [2] [nM] | IC50 [3] [nM] | IC50 (TYK2) [nM] | IC50 ([1]; Table D1) [nM] | IC50 ([2]; Table D1) [nM] | IC50 ([3]; Table D1) [nM] | IC50 (TYK2; Table D1) [nM]
Cc1ncsc1CCC(=O)Nc1ccc2cc1CCc1cccc(c1)Nc1ncc(Cl)c(n1)N2 [Example C48, N-[6-Chloro-2,4,8,22-tetraazatetracyclo[14.3.1.1(3,7).1(9,13)]docosa-1(20),3(22),4,6,9(21),10,12,16,18-nonaen-12-yl]-3-(4-methyl-1,3-thiazol-5-yl)propanamide trifluoroacetate] | 52 | 74 | 1150 | 647 |  |  |  | 
Cc1cc(C(=O)N2CCC(CC(=O)Nc3ccc4cc3CCc3cncc(c3)Nc3ncc(F)c(n3)N4)CC2)no1 [Example C49, N-[6-Fluoro-2,4,8,18,22-pentaazatetracyclo[14.3.1.1(3,7).1(9,13)]docosa-1(20),3(22),4,6,9(21),10,12,16,18-nonaen-12-yl]-2-{1-[(5-methylisoxazol-3-yl)carbonyl]piperidin-4-yl}acetamide trifluoroacetate] | 50 | > 400 | > 400 | 326 |  |  |  | 
Cc1cc(C(=O)N2CCC(CC(=O)Nc3ccc4cc3CCc3cncc(c3)Nc3ncc(C)c(n3)N4)CC2)no1 [Example C51, 2-{1-[(5-Methylisoxazol-3-yl)carbonyl]piperidin-4-yl}-N-[6-methyl-2,4,8,18,22-pentaazatetracyclo[14.3.1.1(3,7).1(9,13)]docosa-1(20),3(22),4,6,9(21),10,12,16,18-nonaen-12-yl]acetamide bis(trifluoroacetate)] | 13 | 371 | > 400 | 100 |  |  |  | 
Cc1cnc2nc1Nc1ccc(NC(=O)CC3CCN(c4nncs4)CC3)c(c1)CCc1cccc(c1)N2 [Example C53, N-[6-Methyl-2,4,8,22-tetraazatetracyclo[14.3.1.1(3,7).1(9,13)]docosa-1(20),3(22),4,6,9(21),10,12,16,18-nonaen-12-yl]-2-[1-(1,3,4-thiadiazol-2-yl)piperidin-4-yl]acetamide trifluoroacetate] | 39 | > 200 | > 200 | 199 |  |  |  | 
CC(=O)N1CCC(COc2ccc3cc2CCc2cncc(c2)Nc2ncc(Cl)c(n2)N3)C1 (stereo not drawn) [Example C56, 12-[(1-Acetylpyrrolidin-3-yl)methoxy]-6-chloro-2,4,8,18,22-pentaazatetracyclo[14.3.1.1(3,7).1(9,13)]docosa-1(20),3(22),4,6,9(21),10,12,16,18-nonaene bis(trifluoroacetate)] | 216 | 255 | > 400 | > 400 |  |  |  | 
O=C(Nc1ccccc1)N1CCC(COc2ccc3cc2CCc2cncc(c2)Nc2ncc(Cl)c(n2)N3)C1 (stereo not drawn) [Example C59, 3-({[6-Chloro-2,4,8,18,22-pentaazatetracyclo[14.3.1.1(3,7).1(9,13)]docosa-1(20),3(22),4,6,9(21),10,12,16,18-nonaen-12-yl]oxy}methyl)-N-phenylpyrrolidine-1-carboxamide bis(trifluoroacetate)] | 102 | > 400 | > 400 | 371 |  |  |  | 
CC(C)(C)NC(=O)N1CCN(c2ccc3cc2CCc2cccc(c2)Nc2ncc(Cl)c(n2)N3)CC1 [Example D84, N-(tert-Butyl)-4-[6-chloro-2,4,8,22-tetraazatetracyclo[14.3.1.1(3,7).1(9,13)]docosa-1(20),3(22),4,6,9(21),10,12,16,18-nonaen-12-yl]piperazine-1-carboxamide bis(trifluoroacetate)] |  |  |  |  | 21 | 7.3 | 37 | 45

Next, values leading:

IC50 [1] [nM] | IC50 [2] [nM] | IC50 [3] [nM] | IC50 (TYK2) [nM] | IC50 ([1]; Table D1) [nM] | IC50 ([2]; Table D1) [nM] | IC50 ([3]; Table D1) [nM] | IC50 (TYK2; Table D1) [nM] | SMILES
> 200 | > 200 | > 200 | > 200 |  |  |  |  | Cc1cc(C(=O)N2CCC(CC(=O)Nc3ccc4cc3CCc3cccc(c3)Nc3ncc(F)c(n3)N4)CC2)no1 [Example C52, N-[6-Fluoro-2,4,8,22-tetraazatetracyclo[14.3.1.1(3,7).1(9,13)]docosa-1(20),3(22),4,6,9(21),10,12,16,18-nonaen-12-yl]-2-{1-[(5-methylisoxazol-3-yl)carbonyl]piperidin-4-yl}acetamide trifluoroacetate]
65 | 199 | > 200 | 199 |  |  |  |  | Cc1cc(C(=O)N2CCC(CC(=O)Nc3ccc4cc3CCc3cccc(c3)Nc3ncc(C)c(n3)N4)CC2)no1 [Example C54, 2-{1-[(5-Methylisoxazol-3-yl)carbonyl]piperidin-4-yl}-N-[6-methyl-2,4,8,22-tetraazatetracyclo[14.3.1.1(3,7).1(9,13)]docosa-1(20),3(22),4,6,9(21),10,12,16,18-nonaen-12-yl]acetamide trifluoroacetate]
96 | > 400 | > 400 | > 400 |  |  |  |  | Clc1cnc2nc1Nc1ccc(OCC3CCNC3)c(c1)CCc1cncc(c1)N2 (stereo not drawn) [Example C55, 6-Chloro-12-(pyrrolidin-3-ylmethoxy)-2,4,8,18,22-pentaazatetracyclo[14.3.1.1(3,7).1(9,13)]docosa-1(20),3(22),4,6,9(21),10,12,16,18-nonaene trihydrochloride]
> 400 | 288 | > 400 | > 400 |  |  |  |  | N#Cc1ccccc1S(=O)(=O)N1CCC(COc2ccc3cc2CCc2cncc(c2)Nc2ncc(Cl)c(n2)N3)C1 (stereo not drawn) [Example C57, 2-{[3-({[6-Chloro-2,4,8,18,22-pentaazatetracyclo[14.3.1.1(3,7).1(9,13)]docosa-1(20),3(22),4,6,9(21),10,12,16,18-nonaen-12-yl]oxy}methyl)pyrrolidin-1-yl]sulfonyl}benzonitrile bis(trifluoroacetate)]
217 | > 400 | > 400 | > 400 |  |  |  |  | Cc1cc(C(=O)N2CCC(COc3ccc4cc3CCc3cncc(c3)Nc3ncc(Cl)c(n3)N4)C2)no1 (stereo not drawn) [Example C58, 6-Chloro-12-({1-[(5-methylisoxazol-3-yl)carbonyl]pyrrolidin-3-yl}methoxy)-2,4,8,18,22-pentaazatetracyclo[14.3.1.1(3,7).1(9,13)]docosa-1(20),3(22),4,6,9(21),10,12,16,18-nonaene bis(trifluoroacetate)]
 |  |  |  | 126 | 26 | 57 | 129 | Clc1cnc2nc1Nc1ccc(N3CCNCC3)c(c1)CCc1cccc(c1)N2 [Example D83, 6-Chloro-12-piperazin-1-yl-2,4,8,22-tetraazatetracyclo[14.3.1.1(3,7).1(9,13)]docosa-1(20),3(22),4,6,9(21),10,12,16,18-nonaene bis(trifluoroacetate)]
 |  |  |  | 24 | 6.6 | 31 | 40 | CC(=O)N1CCN(c2ccc3cc2CCc2cccc(c2)Nc2ncc(Cl)c(n2)N3)CC1 [Example D85, 12-(4-Acetylpiperazin-1-yl)-6-chloro-2,4,8,22-tetraazatetracyclo[14.3.1.1(3,7).1(9,13)]docosa-1(20),3(22),4,6,9(21),10,12,16,18-nonaene bis(trifluoroacetate)]
 |  |  |  | 295 | 87 | 169 | 268 | C[N+]1(C)CCN(c2ccc3cc2CCc2cccc(c2)Nc2ncc(Cl)c(n2)N3)CC1 [Example D86, 4-[6-Chloro-2,4,8,22-tetraazatetracyclo[14.3.1.1(3,7).1(9,13)]docosa-1(20),3(22),4,6,9(21),10,12,16,18-nonaen-12-yl]-1,1-dimethylpiperazin-1-ium bis(trifluoroacetate)]
